Experimental data published in publication PMC6886665 (2019).

Tested on: truncated vancomycin aptamer (four base pairs removed from the stem), E-AB sensor (DNA, aptamer) CGAGGGTACCGCAATAGTACTTATTGTTCGCCTATTGTGGGTCGG
Experiment: electrochemical aptamer-based sensor, square-wave voltammetry
Conditions: undiluted flowing whole blood; surface-attached aptamer; apparent

CN[C@H](CC(C)C)C(=O)N[C@H]1C(=O)N[C@@H](CC(N)=O)C(=O)N[C@H]2C(=O)N[C@H]3C(=O)N[C@H](C(=O)N[C@H](C(=O)O)c4cc(O)cc(O)c4-c4cc3ccc4O)[C@H](O)c3ccc(c(Cl)c3)Oc3cc2cc(c3O[C@@H]2O[C@H](CO)[C@@H](O)[C@H](O)[C@H]2O[C@H]2C[C@](C)(N)[C@H](O)[C@H](C)O2)Oc2ccc(cc2Cl)[C@H]1O
KD: 45 µM
